According to PMC11881016, “Deep‐Learning‐Based Approaches for Rational Design of Stapled Peptides With High Antimicrobial Activity and Stability” (Microbial Biotechnology, 2025):
In brackets after ≈: the same amount, converted by molar mass. Read-outs that look alike come from different tables or passages of the source. *1 amine or outer side, *2 acyl side, *3 side chain or, on linkers, in order; H or OH if unused. Where a SMILES comes first, the peptide text is derived from it. Bridges are numbered along the chain shown (N, C = ends). Where no end group is shown, it is not given here. [ ]: non-standard residue; d: D form. X1 = O=C([C@H](CCCCNCC=[*:3])N[*:1])[*:2]; Octanediyl(1,8) = C(CCCC[*:2])CCC[*:1]; X2 = C(CCCCC[*:2])CCCC[*:1]

Key:
[1] = system: Escherichia coli (E. coli, ATCC25922); format: cell-based
Procedure: (§1) Escherichia coli ( E. coli , ATCC25922), Klebsiella pneumoniae ( K. pneumoniae , ATCC10031), Staphylococcus aureus ( S. aureus , ATCC6538P), Pseudomonas aeruginosa ( P. aeruginosa , ATCC27853) and methicillin‐resistant Staphylococcus aureus (MRSA) were used to evaluate the antimicrobial activity of the peptides and were purchased from BeNa Culture Collection.
(§2) The MICs of the peptides in vitro were determined using the broth microdilution method with minor modifications (Wiegand et al. [2008]). Peptides were incubated with bacteria (about 5 × 10^5 CFU/mL), and PBS was used as the negative control. After 18–24 h of incubation at 37°C, the bacteria were checked for growth by recording the values at OD600, with three replicates in each group.

[2] = system: Klebsiella pneumoniae (K. pneumoniae, ATCC10031); format: cell-based; details: for MIC K. pneumoniae: ATCC10031
Procedure: as §1, §2

[3] = system: Pseudomonas aeruginosa (P. aeruginosa, ATCC27853); format: cell-based
Procedure: as §1, §2

[4] = system: Staphylococcus aureus (S. aureus, ATCC6538P); format: cell-based; details: ATCC6538
Procedure: as §1, §2

[5] = Serum stability assay (residual antimicrobial activity against E. coli); format: in vitro ADME, bovine
Procedure: The serum stability assay was conducted as described by Li et al. ([2020]) with minor modifications. In brief, each peptide was dissolved in PBS solution containing 25% foetal bovine serum (FBS) at a final concentration of 2048 μg/mL and diluted after incubation for 8 h. E. coli was used as the bacterium for the stability assay, and the bacterial inhibition experiment was performed according to the bacterial inhibitory activity assay. Residual activity was calculated using the following formula: Residual activity=MICbefore/MICafter
• where MICbefore represents the MICs against E. coli before incubation, and MICafter represents the MICs against E. coli after incubation for 8 h.

[6] = system: any bacteria; test: Wet experiment result (antimicrobial activity of the synthesised peptides, positive/negative); format: cell-based; details: experiment data set (Supplement S12)
Excerpt: Supplement MBT2-18-e70121-s002.doc, table 9 | column: Wet Exp. Result

[7] = system: methicillin‐resistant Staphylococcus aureus (MRSA); format: cell-based; details: for MIC MRSA: methicillin‐resistant
Procedure: as §1, §2

[8] = stapled peptide compared to its linear peptide

Row | Compound | MIC E. coli [1] | MIC K. pneumoniae [2] | MIC P. aeruginosa [3] | MIC S. aureus [4] | residual antimicrobial activity after incubation in 25% serum (in words) [5] | decrease of residual antimicrobial activity after incubation in 25% serum [5] | Wet Exp. Result [6] | increase of antimicrobial activity against K. pneumoniae [2, 8] | MIC MRSA [7] | increase of antibacterial activity against MRSA [7, 8] | residual antimicrobial activity after incubation in 25% serum (in words) ([5]; 25% foetal bovine serum, 8 h, MIC against E. coli, Figure 7L)
1 | CC[C@H](C)[C@H](NC(=O)CN)C(=O)NCC(=O)N[C@@H](CCCCN)C(=O)N[C@@H](Cc1ccccc1)C(=O)N[C@@H](CC(C)C)C(=O)N[C@@H](Cc1c[nH]cn1)C(=O)N[C@@H](CO)C(=O)N[C@@H](C)C(=O)N[C@@H](CCCCN)C(=O)N[C@@H](CCCCN)C(=O)N[C@@H](Cc1ccccc1)C(=O)NCC(=O)N[C@@H](CCCCN)C(=O)N[C@@H](C)C(=O)N[C@@H](Cc1ccccc1)C(=O)N[C@H](C(=O)N[C@H]1CSSC[C@@H](C(=O)N[C@@H](CO)C(=O)O)NC(=O)[C@H](CC(C)C)NC(=O)[C@H]([C@@H](C)CC)NC(=O)[C@H](CCC(=O)O)NC1=O)C(C)C [Mag2(i + 4)17Dc] (H-GIGKFLHSAKKFGKAFVCEILCS-OH; disulfide 18-22) | 16 µg/mL | 16 µg/mL | 64 µg/mL | 8 µg/mL | significantly decreased | – | – | – | – | – | –
2 | CC[C@H](C)[C@H](NC(=O)[C@H](CCC(=O)O)NC(=O)CNC(=O)[C@@H](NC(=O)[C@H](Cc1ccccc1)NC(=O)[C@H](C)NC(=O)[C@H](CCCCN)NC(=O)CNC(=O)[C@H](Cc1ccccc1)NC(=O)[C@H](CCCCN)NC(=O)[C@H](CCCCN)NC(=O)[C@H](C)NC(=O)[C@H](CO)NC(=O)[C@H](Cc1c[nH]cn1)NC(=O)[C@H](CC(C)C)NC(=O)[C@@H]1CSCCCCCCCCSC[C@H](N)C(=O)N[C@@H]([C@@H](C)CC)C(=O)NCC(=O)N[C@@H](CCCCN)C(=O)N1)C(C)C)C(=O)N[C@@H](CC(C)C)C(=O)N[C@@H](CC(N)=O)C(=O)N[C@@H](CO)C(=O)O [Mag(i + 4)0St] (H-CIGKCLHSAKKFGKAFVGEILNS-OH; linker 1-5 via Octanediyl(1,8); N-terminus and C-terminus assumed) | 4 µg/mL | 16 µg/mL | 32 µg/mL | 32 µg/mL | – | approximately 50% | Positive | – | – | – | –
3 | CC[C@H](C)[C@H](NC(=O)CN)C(=O)NCC(=O)N[C@@H](CCCCN)C(=O)N[C@@H](Cc1ccccc1)C(=O)N[C@@H](CC(C)C)C(=O)N[C@@H](Cc1c[nH]cn1)C(=O)N[C@@H](CO)C(=O)N[C@@H](C)C(=O)N[C@@H](CCCCN)C(=O)N[C@@H](CCCCN)C(=O)N[C@H]1CSCCCCCCCCCCSC[C@@H](C(=O)N[C@H](C(=O)N[C@@H](CC(C)C)C(=O)N[C@@H](CC(N)=O)C(=O)N[C@@H](CO)C(=O)O)[C@@H](C)CC)NC(=O)CNC(=O)[C@H](C(C)C)NC(=O)[C@H](Cc2ccccc2)NC(=O)[C@H](C)NC(=O)[C@H](CCCCN)NC(=O)CNC1=O [Mag(i + 7)11St] (H-GIGKFLHSAKKCGKAFVGCILNS-OH; linker 12-19 via X2) | 16 µg/mL | 8 µg/mL | 32 µg/mL | 2 µg/mL | remained unchanged | – | Positive | – | – | – | –
4 | CC[C@H](C)[C@H](NC(=O)[C@H](CCCNC(=N)N)NC(=O)[C@H](CCCCN)NC(=O)[C@@H](N)Cc1c[nH]c2ccccc12)C(=O)N[C@@H](C)C(=O)N[C@H]1CCCCNC/C=C/CNCCCC[C@@H](C(=O)N[C@@H](CCCCN)C(=O)N[C@@H](CC(C)C)C(=O)NCC(=O)N[C@@H](CCCNC(=N)N)C(=O)N[C@@H](C)C(=O)N[C@@H](CCCCN)C(=O)N[C@@H](CC(C)C)C(=O)N[C@@H](Cc2ccccc2)C(=O)O)NC(=O)[C@H](CCCCN)NC(=O)[C@H](CC(C)C)NC(=O)[C@H](CCCNC(=N)N)NC1=O [VAE‐P3‐3‐St] (H-WKRIA[X1]RLK[X1]KLGRAKLF-OH; staple (E) 6-10) | 16 µg/mL (≈ 6.98 µM) | 1 µg/mL (≈ 0.436 µM) | 16 µg/mL (≈ 6.98 µM) | 4 µg/mL (≈ 1.74 µM) | – | – | Positive | 2–4 fold | 4 µg/mL (≈ 1.74 µM) | 4 fold | –
5 | CC[C@H](C)[C@H](NC(=O)[C@H](CCCNC(=N)N)NC(=O)[C@H](CCCCN)NC(=O)[C@@H](N)Cc1c[nH]c2ccccc12)C(=O)N[C@@H](C)C(=O)N[C@@H](CCCNC(=N)N)C(=O)N[C@H]1CCCCNC/C=C/CNCCCC[C@@H](C(=O)N[C@@H](CC(C)C)C(=O)NCC(=O)N[C@@H](CCCNC(=N)N)C(=O)N[C@@H](C)C(=O)N[C@@H](CCCCN)C(=O)N[C@@H](CC(C)C)C(=O)N[C@@H](Cc2ccccc2)C(=O)O)NC(=O)[C@H](CCCNC(=N)N)NC(=O)[C@H](CCCCN)NC(=O)[C@H](CC(C)C)NC1=O [VAE‐P3‐5‐St] (H-WKRIAR[X1]LKR[X1]LGRAKLF-OH; staple (E) 7-11) | 16 µg/mL (≈ 6.89 µM) | 4 µg/mL (≈ 1.72 µM) | 32 µg/mL (≈ 13.8 µM) | 4 µg/mL (≈ 1.72 µM) | – | – | Positive | – | 16 µg/mL (≈ 6.89 µM) | – | –
6 | GIGKFLHSAKKFGKAFVGEIMNS [Mag2, magainin II, reference compound] | – | – | – | – | – | – | – | – | – | – | significantly decreased
